Molecular target: CREBBP (Homo sapiens (Human), UniProt Q92793)
Assay: In vitro enzyme inhibition assay - CREBBP inhibition (AlphaScreen, biotinylated H4-tetraacetyl peptide)
Type: binding
Conditions: Table 28; AlphaScreen, H4-tetraacetyl peptide
Description: Determination of the IC50 for the CREBBP inhibitors disclosed herein was performed as follows: CREBBP was cloned and expressed in E. Coli as His-tag protein and purified by Nickel affinity and gel-filtration chromatography. […] CREBBP binding and inhibition was assessed by monitoring the interaction of biotinylated H4-tetraacetyl peptide (AnaSpec, H4K5/8/12/16(Ac), biotin-labeled) with the target using the AlphaScreen technology (Perkin Elmer). In a 384-well ProxiPlate CREBBP (50 nM final) was combined with peptide (20 nM final) in 50 mM HEPES (pH 7.3), 10 mM NaCl, 0.25 mM TCEP, 0.1% (w/v) BSA, and 0.005% (w/v) Brij-35 either in the presence of DMSO (final 0.4% DMSO) or compound dilution series in DMSO. After 20-minute incubation at room temperature, Alpha streptavidin donor beads and Nickel Chelate acceptor beads were added to a final concentration of 5 μg/mL. After two hours of equilibration, plates were read on an Envision instrument and the IC50 was calculated using a four parameter non-linear curve fit.
The ability of the compounds disclosed herein to inhibit CBP activity was quantified and the respective IC50 value was determined.

Chain of CREBBP (Q92793 1081-1197): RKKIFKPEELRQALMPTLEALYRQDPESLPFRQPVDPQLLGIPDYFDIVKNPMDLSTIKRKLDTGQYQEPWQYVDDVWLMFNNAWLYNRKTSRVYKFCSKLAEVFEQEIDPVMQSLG

Row | SMILES | IC50
1 | Cc1cccc(F)c1Oc1nc(NCc2ccccn2)cc(-c2ccc(=O)n(C)c2)n1 [Example 302, 5-{2-(2-Fluoro-6-methyl-phenoxy)-6-[(pyridin-2-ylmethyl)-amino]-pyrimidin-4-yl}-1-methyl-1H-pyridin-2-one] | < 500 nM
2 | Cc1cccc(Cl)c1Oc1nc(NC(C)c2ccccc2)cc(-c2ccc(=O)n(C)c2)n1 (stereo not shown) [Example 282, 5-(2-(2-chloro-6-methylphenoxy)-6-((1-phenylethyl)amino)pyrimidin-4-yl)-1-methylpyridin-2(1H)-one] | < 500 nM
3 | Cc1cc(-c2cc(N)nc(Oc3ccc(F)cc3F)n2)cn(C)c1=O [Example 270, 5-(6-amino-2-(2,4-difluorophenoxy)pyrimidin-4-yl)-1,3-dimethy-lpyridin-2(1H)-one] | < 500 nM
4 | CCCS(=O)(=O)Nc1cc(Oc2c(C)cccc2Cl)nc(-c2cc(C)c(=O)n(C)c2)n1 [Example 107, Propane-1-sulfonic acid [6-(2-chloro-6-methyl-phenoxy)-2-(1,5-dimethyl-6-oxo-1,6-dihydro-pyridin-3-yl)-pyrimidin-4-yl]-amide] | < 500 nM
5 | Cc1cccc(C#N)c1Oc1nc(N[C@@H](C)c2ccccc2)cc(-c2ccc(=O)n(C)c2)n1 [Example 322, (S)-3-Methyl-2-[4-(1-methyl-6-oxo-1,6-dihydro-pyridin-3-yl)-6-(1-phenyl-ethylamino)-pyrimidin-2-yloxy]-benzonitrile] | < 500 nM
6 | Cc1cccc(Cl)c1Oc1nc(NS(=O)(=O)C(C)C)cc(-c2ccc(=O)n(C)c2)n1 [Example 104, Propane-2-sulfonic acid [2-(2-chloro-6-methyl-phenoxy)-6-(1-methyl-6-oxo-1,6-dihydro-pyridin-3-yl)-pyrimidin-4-yl]-amide] | < 500 nM
7 | Cn1cc(-c2cc3nc(n2)Oc2cccc(c2)OCC=CCCS(=O)(=O)N3)ccc1=O [Example 356, 5-(10,10-dioxido-2,4-dioxa-10-thia-11-aza-1(2,4)-pyrimidina-3(1,3)-benzenacycloundecaphan-6-en-16-yl)-1-methylpyridin-2(1H)-one] | < 500 nM
8 | CCCCS(=O)(=O)Nc1cc(-c2cc(C)c(=O)n(C)c2)nc(Oc2cc(C)ccc2Cl)n1 [Example 15, Butane-1-sulfonic acid [2-(2-chloro-5-methyl-phenoxy)-6-(1,5-dimethyl-6-oxo-1,6-dihydro-pyridin-3-yl)-pyrimidin-4-yl]-amide] | < 500 nM
9 | CC[C@H](C)S(=O)(=O)Nc1cc(-c2ccc(=O)n(C)c2)nc(Oc2c(F)cccc2F)n1 [Example 229, (S)-N-(2-(2,6-difluorophenoxy)-6-(1-methyl-6-oxo-1,6-dihydropyridin-3-yl)pyrimidin-4-yl)butane-2-sulfonamide] | < 500 nM
10 | CCCS(=O)(=O)Nc1cc(-c2ccc(=O)n(C)c2)nc(Oc2c(F)cccc2CC)n1 [Example 339, N-(2-(2-ethyl-6-fluorophenoxy)-6-(1-methyl-6-oxo-1,6-dihydropyridin-3-yl)pyrimidin-4-yl)propane-1-sulfonamide] | < 500 nM
11 | CCCCNc1cc(-c2ccc(=O)n(C)c2)nc(Oc2c(C)cccc2F)n1 [Example 304, 5-[6-Butylamino-2-(2-fluoro-6-methyl-phenoxy)-pyrimidin-4-yl]-1-methyl-1H-pyridin-2-one] | < 500 nM
12 | CCCS(=O)(=O)Nc1cc(Oc2c(C)cccc2C#N)nc(-c2cc(C)c(=O)n(C)c2)n1 [Example 129, Propane-1-sulfonic acid [6-(2-cyano-6-methyl-phenoxy)-2-(1,5-dimethyl-6-oxo-1,6-dihydro-pyridin-3-yl)-pyrimidin-4-yl]-amide] | < 500 nM
13 | CCCS(=O)(=O)Nc1cc(-c2ccc(=O)n(C)c2)nc(Oc2c(F)cccc2F)n1 [Example 341, N-(2-(2,6-difluorophenoxy)-6-(1-methyl-6-oxo-1,6-dihydropyridin-3-yl)pyrimidin-4-yl)propane-1-sulfonamide] | < 500 nM
14 | CCCCS(=O)(=O)Nc1cc(-c2cc(OC)c(=O)n(C)c2)nc(Oc2c(C)cccc2C)n1 [Example 106, N-(2-(2,6-dimethylphenoxy)-6-(5-methoxy-1-methyl-6-oxo-1,6-dihydropyridin-3-yl)pyrimidin-4-yl)butane-1-sulfonamide] | < 500 nM
15 | CCS(=O)(=O)Nc1cc(-c2ccc(=O)n(C)c2)nc(Oc2c(C)cccc2F)n1 [Example 116, Ethanesulfonic acid [2-(2-fluoro-6-methyl-phenoxy)-6-(1-methyl-6-oxo-1,6-dihydro-pyridin-3-yl)-pyrimidin-4-yl]-amide] | < 500 nM
16 | Cc1cccc(F)c1Oc1nc(NS(=O)(=O)CCC(C)C)nc(-c2cc(C)c(=O)n(C)c2)n1 [Example 186, 3-Methyl-butane-1-sulfonic acid [4-(1,5-dimethyl-6-oxo-1,6-dihydro-pyridin-3-yl)-6-(2-fluoro-6-methyl-phenoxy)-[1,3,5]triazin-2-yl]-amide] | < 500 nM

Row | SMILES | IC50
17 | CCCCS(=O)(=O)Nc1cc(-c2c[nH]c(=O)c(C)c2)nc(Oc2c(C)cccc2Cl)n1 [Example 157, Butane-1-sulfonic acid [2-(2-chloro-6-methyl-phenoxy)-6-(5-methyl-6-oxo-1,6-dihydro-pyridin-3-yl)-pyrimidin-4-yl]-amide] | < 500 nM
18 | COc1nc(NCc2cccnc2)cc(-c2ccc(=O)n(C)c2)n1 [Example 330, 5-{2-Methoxy-6-[(pyridin-3-ylmethyl)-amino]-pyrimidin-4-yl}-1-methyl-1H-pyridin-2-one] | < 500 nM
19 | CCCS(=O)(=O)Nc1cc(-c2ccc(=O)n(C)c2)nc(OC(C)C)n1 [Example 237, Propane-1-sulfonic acid [2-isopropoxy-6-(1-methyl-6-oxo-1,6-dihydro-pyridin-3-yl)-pyrimidin-4-yl]-amide] | < 500 nM
20 | CCCCS(=O)(=O)Nc1cc(-c2ccc(=O)n(C)c2)nc(Oc2c(Cl)ccc(C)c2F)n1 [Example 258, Butane-1-sulfonic acid [2-(6-chloro-2-fluoro-3-methyl-phenoxy)-6-(1-methyl-6-oxo-1,6-dihydro-pyridin-3-yl)-pyrimidin-4-yl]-amide] | < 500 nM
21 | Cc1ccc(Cl)c(Oc2nc(NS(=O)(=O)C(C)C)cc(-c3ccc(=O)n(C)c3)n2)c1F [Example 261, Propane-2-sulfonic acid [2-(6-chloro-2-fluoro-3-methyl-phenoxy)-6-(1-methyl-6-oxo-1,6-dihydro-pyridin-3-yl)-pyrimidin-4-yl]-amide] | < 500 nM
22 | CCS(=O)(=O)Nc1cc(-c2cc(C)c(=O)n(C)c2)nc(-c2ccccc2C)n1 [Example 192, Ethanesulfonic acid [6-(1,5-dimethyl-6-oxo-1,6-dihydro-pyridin-3-yl)-2-o-tolyl-pyrimidin-4-yl]-amide] | < 500 nM
23 | CCc1cccc(F)c1Oc1nc(NS(=O)(=O)[C@H](C)CC)cc(-c2ccc(=O)n(C)c2)n1 [Example 214, (2R)-Butane-2-sulfonic acid [2-(2-ethyl-6-fluoro-phenoxy)-6-(1-methyl-6-oxo-1,6-dihydro-pyridin-3-yl)-pyrimidin-4-yl]-amide] | < 500 nM
24 | CC(C)CCS(=O)(=O)Nc1cc(-c2ccc(=O)n(C)c2)nc(Oc2c(F)cccc2Cl)n1 [Example 251, 3-Mehtyl-butane-1-sulfonic acid [2-(2-chloro-6-fluoro-phenoxy)-6-(1-methyl-6-oxo-1,6-dihydro-pyridin-3-yl)-pyrimidin-4-yl]-amide] | < 500 nM
25 | CCCS(=O)(=O)Nc1cc(-c2ccc(=O)n(C)c2)nc(Oc2c(C)nn(C)c2C)n1 [Example 126, Propane-1-sulfonic acid [6-(1-methyl-6-oxo-1,6-dihydro-pyridin-3-yl)-2-(1,3,5-trimethyl-1H-pyrazol-4-yloxy)-pyrimidin-4-yl]-amide] | < 500 nM
26 | Cn1cc(-c2cc3nc(n2)Oc2cccc(c2)OCCCCCCS(=O)(=O)N3)ccc1=O [Example 359, 5-(11,11-dioxido-2,4-dioxa-11-thia-12-aza-1(2,4)-pyrimidina-3(1,3)-benzenacyclododecaphane-1^6-yl)-1-methylpyridin-2(1H)-one] | < 500 nM
27 | CCCCS(=O)(=O)Nc1cc(-c2cc(C)c(=O)n(C)c2)nc(Oc2c(C)cccc2F)n1 [Example 19, Butane-1-sulfonic acid [6-(1,5-dimethyl-6-oxo-1,6-dihydro-pyridin-3-yl)-2-(2-fluoro-6-methyl-phenoxy)-pyrimidin-4-yl]-amide] | < 500 nM
28 | Cc1cccc(C)c1CNc1cc(-c2ccc(=O)n(C)c2)nc(Oc2c(C)cccc2F)n1 [Example 300, 5-[6-(2,6-Dimethyl-benzylamino)-2-(2-fluoro-6-methyl-phenoxy)-pyrimidin-4-yl]-1-methyl-1H-pyridin-2-one] | < 500 nM
29 | Cc1ccccc1C(C)Nc1cc(-c2ccc(=O)n(C)c2)nc(Oc2c(C)cccc2F)n1 (stereo not shown) [Example 299, 5-[2-(2-Fluoro-6-methyl-phenoxy)-6-(1-o-tolyl-ethylamino)-pyrimidin-4-yl]-1-methyl-1H-pyridin-2-one] | < 500 nM
30 | CCCS(=O)(=O)Nc1cc(-c2cc(C)c(=O)n(C)c2)nc(-c2ccccc2)n1 [Example 156, N-(6-(1,5-dimethyl-6-oxo-1,6-dihydropyridin-3-yl)-2-phenylpyrimidin-4-yl)propane-1-sulfonamide] | 500 to 5000 nM
31 | Cc1cccc(F)c1Oc1nc(NC(C)c2ccccc2)cc(-c2ccc(=O)n(C)c2)n1 (stereo not shown) [Example 298, 5-[2-(2-Fluoro-6-methyl-phenoxy)-6-(1-phenyl-ethylamino)-pyrimidin-4-yl]-1-methyl-1H-pyridin-2-one] | < 500 nM

Source: patent US10202360B2 (CELGENE QUANTICEL RESEARCH, INC., priority 2016, dated 2019)
